Experimental data: PubChem BioAssay AID1963849 (Molecular Pharmacology Branch, DTP, NCI, 2024)

System: 299254-011-R-J1-PDC complex spheroid viability
Experiment: Anticancer human tumor 299254-011-R-J1-PDC patient-derived melanoma cell line growth inhibition [POLQ]
Details: for IC50: curve of first compound; for viability, T/C: stronger effect = lower value; active means viability on the fitted dose curve at most 10% of control; inactive means the rest
How it was run: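 Three-cell-type spheroids modelling solid tumor plus stroma served as the readout system; POL inhibitors were tested individually and in combination, concentration ranges set by clinical Cmax where known.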

[1] = second compound 0.0316 µM, first compound 0.0316 µM
[2] = second compound 0.0316 µM, first compound 0.1 µM
[3] = second compound 0.0316 µM, first compound 0.316 µM
[4] = second compound 0.0316 µM, first compound 1 µM
[5] = second compound 0.0316 µM, first compound 3.16 µM
[6] = second compound 0.0316 µM, first compound 10 µM
[7] = second compound 0.1 µM, first compound 0.0316 µM
[8] = second compound 0.1 µM, first compound 0.1 µM
[9] = second compound 0.1 µM, first compound 0.316 µM
[10] = second compound 0.1 µM, first compound 1 µM
[11] = second compound 0.1 µM, first compound 3.16 µM
[12] = second compound 0.1 µM, first compound 10 µM
[13] = second compound 0.316 µM, first compound 0.0316 µM
[14] = second compound 0.316 µM, first compound 0.1 µM
[15] = second compound 0.316 µM, first compound 0.316 µM
[16] = second compound 0.316 µM, first compound 1 µM
[17] = second compound 0.316 µM, first compound 3.16 µM
[18] = second compound 0.316 µM, first compound 10 µM
[19] = second compound 1 µM, first compound 0.0316 µM
[20] = second compound 1 µM, first compound 0.1 µM
[21] = second compound 1 µM, first compound 0.316 µM
[22] = second compound 1 µM, first compound 1 µM
[23] = second compound 1 µM, first compound 3.16 µM
[24] = second compound 1 µM, first compound 10 µM
[25] = second compound 3.16 µM, first compound 0.0316 µM
[26] = second compound 3.16 µM, first compound 0.1 µM
[27] = second compound 3.16 µM, first compound 0.316 µM
[28] = second compound 3.16 µM, first compound 1 µM
[29] = second compound 3.16 µM, first compound 3.16 µM
[30] = second compound 3.16 µM, first compound 10 µM
[31] = second compound 10 µM, first compound 0.0316 µM
[32] = second compound 10 µM, first compound 0.1 µM
[33] = second compound 10 µM, first compound 0.316 µM
[34] = second compound 10 µM, first compound 1 µM
[35] = second compound 10 µM, first compound 3.16 µM
[36] = second compound 10 µM, first compound 10 µM
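Further: spheroids exposed to drugs for one week before measurement.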
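Wherever viability, T/C is given: percent viability relative to DMSO vehicle control taken as 100%.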

COc1cc(C2c3cc4c(cc3C(OC3OC5COC(C)OC5C(O)C3O)C3COC(=O)C23)OCO4)cc(OC)c1O (stereo not drawn) + Nc1ccc(C#CCN(C(=O)Cc2ncc(C(F)(F)F)cc2C(F)(F)F)c2ccc(F)cc2)nn1
> 10 µM: IC50 (second compound 0.0316 µM) | IC50 (second compound 0.1 µM) | IC50 (second compound 0.316 µM) | IC50 (second compound 1 µM) | IC50 (second compound 3.16 µM) | IC50 (second compound 10 µM)
inactive: viability, T/C [1] 112% | viability, T/C [2] 105% | viability, T/C [3] 87.5% | viability, T/C [4] 92.2% | viability, T/C [5] 78.7% | viability, T/C [6] 63.5% | viability, T/C [7] 112% | viability, T/C [8] 94.4% | viability, T/C [9] 112% | viability, T/C [10] 84.5% | viability, T/C [11] 89.7% | viability, T/C [12] 69.7% | viability, T/C [13] 114% | viability, T/C [14] 100% | viability, T/C [15] 88.5% | viability, T/C [16] 106% | viability, T/C [17] 83.7% | viability, T/C [18] 74.8% | viability, T/C [19] 108% | viability, T/C [20] 99.2% | viability, T/C [21] 90.3% | viability, T/C [22] 99.6% | viability, T/C [23] 71.8% | viability, T/C [24] 82.3% | viability, T/C [25] 99.7% | viability, T/C [26] 102% | viability, T/C [27] 88.9% | viability, T/C [28] 80.7% | viability, T/C [29] 76.8% | viability, T/C [30] 69.3% | viability, T/C [31] 98.8% | viability, T/C [32] 100% | viability, T/C [33] 89.9% | viability, T/C [34] 75.5% | viability, T/C [35] 89.1% | viability, T/C [36] 71.7%

C=CCn1c(=O)c2cnc(Nc3ccc(N4CCN(C)CC4)cc3)nc2n1-c1cccc(C(C)(C)O)n1 + Cc1cccc(N(C)C(=O)C2C(O)CCN2c2nc(C)cc(C(F)(F)F)c2C#N)c1
inactive: viability, T/C (second compound 0.0316 µM, first compound 0.00316 µM) 98.3% | viability, T/C (second compound 0.0316 µM, first compound 0.01 µM) 119% | viability, T/C [1] 96% | viability, T/C [2] 116% | viability, T/C [3] 103% | viability, T/C [4] 62.1% | viability, T/C (second compound 0.1 µM, first compound 0.00316 µM) 101% | viability, T/C (second compound 0.1 µM, first compound 0.01 µM) 103% | viability, T/C [7] 106% | viability, T/C [8] 103% | viability, T/C [9] 90.2% | viability, T/C [10] 67.4% | viability, T/C (second compound 0.316 µM, first compound 0.00316 µM) 111% | viability, T/C (second compound 0.316 µM, first compound 0.01 µM) 108% | viability, T/C [13] 99.7% | viability, T/C [14] 108% | viability, T/C [15] 108% | viability, T/C [16] 64.2% | viability, T/C (second compound 1 µM, first compound 0.00316 µM) 117% | viability, T/C (second compound 1 µM, first compound 0.01 µM) 98.6% | viability, T/C [19] 110% | viability, T/C [20] 99.8% | viability, T/C [21] 90.5% | viability, T/C [22] 57.8% | viability, T/C (second compound 3.16 µM, first compound 0.00316 µM) 104% | viability, T/C (second compound 3.16 µM, first compound 0.01 µM) 102% | viability, T/C [25] 113% | viability, T/C [26] 103% | viability, T/C [27] 97.2% | viability, T/C [28] 67% | viability, T/C (second compound 10 µM, first compound 0.00316 µM) 105% | viability, T/C (second compound 10 µM, first compound 0.01 µM) 109% | viability, T/C [31] 89.4% | viability, T/C [32] 96.5% | viability, T/C [33] 88.2% | viability, T/C [34] 59.3%
> 1 µM: IC50 (second compound 0.0316 µM) | IC50 (second compound 0.1 µM) | IC50 (second compound 0.316 µM) | IC50 (second compound 1 µM) | IC50 (second compound 3.16 µM) | IC50 (second compound 10 µM)

CCc1cc2c(N3CCc4c(cc(Cn5ccnc5)cc4-c4cn(C)nc4C(F)(F)F)C3=O)ccnc2c(OC)n1 + Nc1ccc(C#CCN(C(=O)Cc2ncc(C(F)(F)F)cc2C(F)(F)F)c2ccc(F)cc2)nn1
> 10 µM: IC50 (second compound 0.0316 µM) | IC50 (second compound 0.1 µM) | IC50 (second compound 0.316 µM) | IC50 (second compound 1 µM) | IC50 (second compound 3.16 µM) | IC50 (second compound 10 µM)
inactive: viability, T/C [1] 118% | viability, T/C [2] 99.3% | viability, T/C [3] 93.6% | viability, T/C [4] 115% | viability, T/C [5] 109% | viability, T/C [6] 74.3% | viability, T/C [7] 101% | viability, T/C [8] 107% | viability, T/C [9] 91.4% | viability, T/C [10] 99.2% | viability, T/C [11] 89.2% | viability, T/C [12] 73.6% | viability, T/C [13] 126% | viability, T/C [14] 100% | viability, T/C [15] 107% | viability, T/C [16] 98.9% | viability, T/C [17] 97.2% | viability, T/C [18] 79.5% | viability, T/C [19] 102% | viability, T/C [20] 114% | viability, T/C [21] 103% | viability, T/C [22] 101% | viability, T/C [23] 89% | viability, T/C [24] 73.5% | viability, T/C [25] 96.9% | viability, T/C [26] 97.2% | viability, T/C [27] 89.5% | viability, T/C [28] 100% | viability, T/C [29] 84.5% | viability, T/C [30] 76.5% | viability, T/C [31] 90.4% | viability, T/C [32] 103% | viability, T/C [33] 87% | viability, T/C [34] 80.6% | viability, T/C [35] 84.8% | viability, T/C [36] 62.2%

C#Cc1c(F)ccc2cc(O)cc(-c3ncc4c(N5CC6CCC(C5)N6)nc(OCC56CCCN5CC(F)C6)nc4c3F)c12 (stereo not drawn) + COC1C(OC(N)=O)C(O)C(Oc2ccc3c(O)c(NC(=O)c4ccc(O)c(CC=C(C)C)c4)c(=O)oc3c2C)OC1(C)C
inactive: viability, T/C [1] 87.2% | viability, T/C [2] 125% | viability, T/C [3] 105% | viability, T/C [4] 115% | viability, T/C [5] 96.4% | viability, T/C [6] 79.7% | viability, T/C [7] 102% | viability, T/C [8] 99.2% | viability, T/C [9] 99.2% | viability, T/C [10] 114% | viability, T/C [11] 94.8% | viability, T/C [12] 80.9% | viability, T/C [13] 110% | viability, T/C [14] 104% | viability, T/C [15] 107% | viability, T/C [16] 114% | viability, T/C [17] 105% | viability, T/C [18] 72.7% | viability, T/C [19] 104% | viability, T/C [20] 98.2% | viability, T/C [21] 105% | viability, T/C [22] 136% | viability, T/C [23] 102% | viability, T/C [24] 79.4% | viability, T/C [25] 114% | viability, T/C [26] 109% | viability, T/C [27] 106% | viability, T/C [28] 109% | viability, T/C [29] 101% | viability, T/C [30] 70.6% | viability, T/C [31] 93.9% | viability, T/C [32] 99.7% | viability, T/C [33] 111% | viability, T/C [34] 101% | viability, T/C [35] 111% | viability, T/C [36] 69.2%
> 10 µM: IC50 (second compound 0.0316 µM) | IC50 (second compound 0.1 µM) | IC50 (second compound 0.316 µM) | IC50 (second compound 1 µM) | IC50 (second compound 3.16 µM) | IC50 (second compound 10 µM)
